Source: patent EP4722195A1, “PH-SENSITIVE CATIONIC LIPID AND LIPID NANOPARTICLES” (National University Corporation Hokkaido University, priority 2023, dated 2024)

Assays:
liver [1] = experiment: Fluc activity in the liver of mice administered Fluc mRNA-loaded lipid nanoparticles; type: in vivo, BALB/c mice; settings: for Fluc activity in the liver at 6, 24, and 48 hours after administration: Example 28, Fig. 7, TxT-5-5A12β versus TxT-5-5A14 nanoparticles, 50/3/47/1.5 (mol%)
Method: Lipid nanoparticles were administered to mice by intravenous injection into the tail vein using a 27G needle. Unless otherwise specified, BALB/c mice (4 to 5 weeks old, female) were used.
First, BALB/c mice (female, 4 weeks old) were intravenously injected with lipid nanoparticles encapsulating Fluc mRNA (Fluc mRNA-loaded lipid nanoparticles) at a dose of 0.1 mg mRNA/kg. Six hours after intravenous injection, the mice were euthanized, each tissue was collected, frozen in liquid nitrogen, and stored at -80°C. The tissues were homogenized in passive lysis buffer (manufactured by Promega) using a bead-type cell disruptor (Micro Smash MS-100R, manufactured by TOMY Seiko). Tissue debris was removed by centrifugation, and the supernatant was collected. Fluc activity in the supernatant was measured using the Luciferase Assay System (E1500, manufactured by Promega) according to the manufacturer's protocol. Luminescence was measured using a luminometer (Luminescencer-PSN, manufactured by ATTO). Protein concentration was determined using a commercially available assay kit (BCA Protein Assay Kit, manufactured by Pierce). Fluc activity was expressed as relative light units (RLU) per mg of protein.
Subsequently, lipid nanoparticles encapsulating Fluc mRNA prepared using TxT-5-5A10, TxT-5-5A12, TxT-5-5A12β, TxT-5-5A14, and TxT-5-5A16 were administered to mice to evaluate luciferase expression levels (Fluc activity) in various tissues. Specifically, each Fluc mRNA-loaded lipid nanoparticle was administered to Balb/c mice at a dose of 0.1 mg mRNA/kg. Six hours after administration, the mice were euthanized, and their organs were collected to measure Fluc activity (RLU/mg protein) (N = 2 or 4).

[2] = Encapsulation rate of lipid nanoparticles (Ribogreen); type: physicochemical
Summary of the method: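 Ribogreen fluorescence (Ex/Em 500/525 nm) measured after mixing sample 1:1 with 10 mM HEPES pH 7.4 buffer with or without Triton X-100. mRNA quantified from a calibration curve of known mRNA dilutions; encapsulation rate (%) calculated from Triton(+) versus Triton(−) signals.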

[3] = Average particle size and polydispersity index of lipid nanoparticles (dynamic light scattering); type: physicochemical
Method: The average particle size (number average value), ζ-average particle size, and polydispersity index (PdI) of the lipid nanoparticles in PBS(-) (pH 7.4), and the zeta potential in 10 mM HEPES buffer (pH 7.4) were measured using an analyzer "Zetasizer Nano ZS ZEN3600" (manufactured by Malvern) utilizing dynamic light scattering.

liver [4] = experiment: EGFP expression in liver tissue sections of mice administered EGFP mRNA-loaded lipid nanoparticles (confocal microscopy); type: in vivo, Balb/c mice; settings: for fluorescence of EGFP in the liver tissues / gene expression in hepatocytes: Example 27, Fig. 6, EGFP mRNA-loaded lipid nanoparticles TxT/DSPC/chol/PEG-DMG=50/3/47/1.5 (mol%), 24 hours post-administration
Method: Subsequently, each EGFP mRNA-loaded lipid nanoparticle was administered to Balb/c mice at a dose of 0.2 mg mRNA/kg. At 23 hours and 50 minutes post-administration, fluorescently labeled lectin (DyLight-649 Lycopersicon (Tomato) Lectin) was intravenously injected via the tail vein at 40 µg/mouse to fluorescently label vascular endothelial cells. At 24 hours after administration of the lipid nanoparticles, the mice were euthanized, and their livers were collected to prepare tissue sections. For nuclear staining, the tissue sections were immersed in a nuclear staining solution (1 µg/mL Hoechst 33342 dissolved in PBS(-)), cooled on ice, and incubated for at least 30 minutes in the dark. The stained tissue sections were then observed using a confocal laser scanning microscope. Subsequently, in the same manner as Example 26, each EGFP mRNA-loaded lipid nanoparticle was administered to Balb/c mice. At 23 hours and 50 minutes post-administration, fluorescently labeled lectin was administered. At 24 hours after administration of the lipid nanoparticles, the mice were euthanized, and their livers were collected to prepare tissue sections. Each tissue section was observed using a confocal laser scanning microscope. In the figure, the upper panels show fluorescence images of EGFP, and the lower panels show fluorescence images of vascular endothelial cells (fluorescently labeled lectin).

[5] = Apparent pKa of lipid nanoparticles (TNS)
Method: The apparent pKa of the lipid nanoparticles was measured using p-toluenesulfonic acid (TNS). First, TNS (final concentration: 0.75 µM) and lipid nanoparticles (final concentration: 30 µM) were mixed in a buffer (200 mL) adjusted to each pH (pH 3.5 to 9.5). As the buffer, 20 mM citrate buffer, 20 mM sodium phosphate buffer, or 20 mM Tris-HCl buffer containing 130 mM NaCl was used. The fluorescence intensity of the prepared mixture was measured using a fluorescence spectrophotometer (Varioskan Lux, manufactured by Thermo Fisher Scientific) with the settings of λex=321 nm and λem=447 nm. Among the measured values, the highest value and the lowest value were set as 100% and 0% ionization degrees, respectively, and the pH showing a 50% ionization degree was calculated as the apparent pKa. The content ratio (%) of cationically charged pH-sensitive cationic lipid was calculated using the Henderson-Hasselbalch equation.

[6] = Table 1, Fluc mRNA-loaded lipid nanoparticles, TxT/DSPC/chol/PEG-DMG=50/15/35/1.5 (mol%)
[7] = Table 3, Fluc mRNA-loaded lipid nanoparticles, TxT/DSPC/chol/PEG-DMG=50/3/47/1.5 (mol%)
[8] = Table 5, EGFP mRNA-loaded lipid nanoparticles, TxT/DSPC/chol/PEG-DMG=50/3/47/1.5 (mol%), total flow rate 3.0 mL/min
[9] = Table 6 (Example 28), Fluc mRNA-loaded lipid nanoparticles, TxT/DSPC/chol/PEG-DMG=50/3/47/1.5 (mol%)
[10] = Table 7, hEPO mRNA-loaded lipid nanoparticles, TxT/DSPC/chol/PEG-DMG=50/3/47/1.5, SM-102/DSPC/chol/PEG-DMG=50/10/40/1.5 (mol%)
[11] = Table 8 (Example 32), lipid nanoparticles for TTR-targeted genome editing, Cas9-mRNA and TTR-gRNA 1:2 (N/P = 6.0), TxT/DSPC/chol/PEG-DMG = 50/3/47/1.5 (mol%)
[12] = Table 1, apparent pKa of Fluc mRNA-loaded lipid nanoparticles, TxT/DSPC/chol/PEG-DMG=50/15/35/1.5 (mol%)
[13] = Table 4, Fluc mRNA-loaded lipid nanoparticles, TxT-5-5A14/DSPC/chol/PEG-DMG=50/3/47/1.5, SM-102, ALC-0315 or MC3/DSPC/chol/PEG-DMG=50/10/40/1.5 (mol%)
[14] = Table 9 (Example 33), lipid nanoparticles for TTR-targeted genome editing, Cas9-mRNA and TTR-gRNA 1:2 (N/P = 6.0), TxT-5-5A14/DSPC/chol/PEG-DMG = 50/3/47/1.5 (mol%)
[15] = Table 10 (Example 34), lipid nanoparticles for PCSK9-targeted genome editing, Cas9-mRNA and PCSK9-gRNA 1:2 (N/P = 6.0), TxT-5-5A14/DSPC/chol/PEG-DMG = 50/3/47/1.5 (mol%)

CCCCCCC(CCCC)CNC(=O)CCCC(=O)OCC(COC(=O)CCCC(=O)NCC(CCCC)CCCCCC)(COC(=O)CCCC(=O)NCC(CCCC)CCCCCC)NC(=O)CCN1CCCCC1 (stereo not drawn) [TxT-5-5A12β, 2-(((5-((2-butyloctyl)amino)-5-oxopentanoyl)oxy)methyl)-2-(3-(piperidin-1-yl)propanamido)propane-1,3-diyl bis(5-((2-butyloctyl)amino)-5-oxopentanoate)]
Fluc activity in the liver at 6, 24, and 48 hours after administration (liver [1]; N = 3): comparable levels of gene expression at all time points | mRNA concentration [2, 6]: 0.024 µg/µL | mRNA encapsulation rate [2, 6]: 97.0% | mRNA concentration [2, 7]: 0.023 µg/µL | mRNA encapsulation rate [2, 7]: 99.5% | mRNA concentration [2, 8]: 0.016 µg/µL | mRNA encapsulation rate [2, 8]: 99.1% | mRNA concentration [2, 9]: 0.020 µg/µL | mRNA encapsulation rate [2, 9]: 98.0% | mRNA concentration [2, 10]: 0.017 µg/µL | mRNA encapsulation rate [2, 10]: 99.5% | mRNA concentration [2, 11]: 0.412 µg/µL | mRNA encapsulation rate [2, 11]: 99.1% | average particle diameter, comparison among TxT lipids ([3]; Example 32, Table 8, lipid nanoparticles for TTR-targeted genome editing): largest | Pdl [3, 6]: 0.08 | number average particle size [3, 6]: 82.8 nm | ζ-average particle size [3, 6]: 111.9 nm | Pdl [3, 7]: 0.08 | number average particle size [3, 7]: 72.8 nm | ζ-average particle size [3, 7]: 96.0 nm | Pdl [3, 8]: 0.05 | number average particle size [3, 8]: 81.9 nm | ζ-average particle size [3, 8]: 104.0 nm | Pdl [3, 9]: 0.06 | number average particle size [3, 9]: 71.2 nm | ζ-average particle size [3, 9]: 92.0 nm | Pdl [3, 10]: 0.10 | number average particle size [3, 10]: 66.9 nm | ζ-average particle size [3, 10]: 88.9 nm | Pdl [3, 11]: 0.02 | number average particle size [3, 11]: 71.3 nm | ζ-average particle size [3, 11]: 87.8 nm | fluorescence of EGFP in the liver tissues (liver [4]): fluorescence of EGFP was observed | gene expression in hepatocytes (liver [4]): notably high levels of gene expression | pKa [5, 12]: 4.90 | pKa [5, 7]: 6.53

CCCCCCCN(CCCCCCC)C(=O)CCCC(=O)OCC(COC(=O)CCCC(=O)N(CCCCCCC)CCCCCCC)(COC(=O)CCCC(=O)N(CCCCCCC)CCCCCCC)NC(=O)CCN1CCCCC1 [TxT-5-5A14, 2-(((5-(diheptylamino)-5-oxopentanoyl)oxy)methyl)-2-(3-(piperidin-1-yl)propanamido)propane-1,3-diyl bis(5-(diheptylamino)-5-oxopentanoate)]
Fluc activity (liver), comparison among TxT lipids (liver [1]; Example 24, Fig. 3A, TxT/DSPC/chol/PEG-DMG=50/3/47/1.5 (mol%), 0.1 mg mRNA/kg, six hours): highest Fluc activity | Fluc activity in the liver compared to lipid nanoparticles comprising other cationic lipids (SM-102, ALC-0315, MC3) (liver [1]; Example 25, Fig. 4, TxT-5-5A14 50/3/47/1.5, comparators 50/10/40/1.5 (mol%), 0.1 mg mRNA/kg, six hours, N = 3): significantly higher Fluc activity | Fluc activity in the liver at 6, 24, and 48 hours after administration (liver [1]; N = 3): comparable levels of gene expression at all time points | mRNA concentration [2, 6]: 0.025 µg/µL | mRNA encapsulation rate [2, 6]: 98.8% | mRNA concentration [2, 7]: 0.022 µg/µL | mRNA encapsulation rate [2, 7]: 98.6% | mRNA concentration [2, 13]: 0.022 µg/µL | mRNA encapsulation rate [2, 13]: 99.4% | mRNA concentration [2, 8]: 0.023 µg/µL | mRNA encapsulation rate [2, 8]: 99.0% | mRNA concentration [2, 9]: 0.021 µg/µL | mRNA encapsulation rate [2, 9]: 98.2% | mRNA concentration [2, 10]: 0.022 µg/µL | mRNA encapsulation rate [2, 10]: 99.3% | mRNA concentration [2, 11]: 0.467 µg/µL | mRNA encapsulation rate [2, 11]: 96.5% | mRNA concentration [2, 14]: 0.037 µg/µL | mRNA encapsulation rate [2, 14]: 99.1% | mRNA concentration [2, 15]: 0.311 µg/µL | mRNA encapsulation rate [2, 15]: 97.1% | Pdl [3, 6]: 0.11 | number average particle size [3, 6]: 72.4 nm | ζ-average particle size [3, 6]: 106.2 nm | Pdl [3, 7]: 0.08 | number average particle size [3, 7]: 78.9 nm | ζ-average particle size [3, 7]: 101.0 nm | Pdl [3, 13]: 0.08 | number average particle size [3, 13]: 82.4 nm | ζ-average particle size [3, 13]: 113.8 nm | Pdl [3, 8]: 0.06 | number average particle size [3, 8]: 80.9 nm | ζ-average particle size [3, 8]: 106.0 nm | Pdl [3, 9]: 0.09 | number average particle size [3, 9]: 79.6 nm | ζ-average particle size [3, 9]: 107.7 nm | Pdl [3, 10]: 0.04 | number average particle size [3, 10]: 76.6 nm | ζ-average particle size [3, 10]: 103.4 nm | Pdl [3, 11]: 0.05 | number average particle size [3, 11]: 66.4 nm | ζ-average particle size [3, 11]: 82.2 nm | Pdl [3, 14]: 0.10 | number average particle size [3, 14]: 67.7 nm | ζ-average particle size [3, 14]: 91.8 nm | Pdl [3, 15]: 0.10 | number average particle size [3, 15]: 73.6 nm | ζ-average particle size [3, 15]: 99.4 nm | GFP expression in cell types of the liver (liver [4]; Example 26, Fig. 5, EGFP mRNA-loaded lipid nanoparticles 50/3/47/1.5 (mol%), 0.2 mg mRNA/kg, 24 hours after administration): GFP expression was observed not only in hepatocytes but also in vascular endothelial cells | fluorescence of EGFP in the liver tissues (liver [4]): fluorescence of EGFP was observed | gene expression in hepatocytes (liver [4]): notably high levels of gene expression | pKa [5, 12]: 4.99 | pKa [5, 7]: 6.46 | pKa [5, 13]: 6.53
